We go through 2 molecules from US7879865B2, “Treatment of cancer of the brain using histone deacetylase inhibitors” (Sloan-Kettering Institute for Cancer Research, priority 2001, dated 2011).

Data set [1] relates to histone deacetylase (HDAC). The data set can be described thus: Acetylated histone levels in mouse tissues after IP injection (Western blot of isolated histones). It is filed as in vivo. Particulars: mice, three injections at 1 hour intervals, SAHA 100 mg/kg, pyroxamide 200 mg/kg. How it is done: FIG. […]
Each mouse was administered three injections at the indicated dose at 1 hour intervals. After the final IP injection tissues (brain, spleen or liver) were isolated at the times indicated. Histones were isolated from tissues essentially as described by Yoshida et al., (1990) J. Biol. Chem. 265:17174-17179. Equal amounts of histones (1 μg) were electrophoresed on 15% SDS-polyacrylamide gels and transferred to Hybond-P filters (Amersham). Filters were blocked with 3% milk and probed with a rabbit purified polyclonal anti-acetylated histone H4 antibody (αAc-H4) and anti-acetylated histone H3 antibody (αAc-H3) (Upstate Biotechnology, Inc.). Levels of acetylated histone were visualized using a horseradish peroxidase-conjugated goat anti-rabbit antibody (1:5000) and the SuperSignal chemiluminescent substrate (Pierce). As a loading control for the histone proteins, parallel gels were run and stained with Coomassie Blue (CB).

Another data set concerns tumor growth. To be noted: cited from earlier work.
The subject of data set [2] is transformed cells in culture. Particulars: cited from earlier work.
For data set [3], the system named is histone deacetylase enzyme. Particulars: cited from earlier work.

`O=C(CCCCCCC(=O)Nc1cccnc1)NO` [pyroxamide]: the “crossing of the blood brain barrier” value in data set [1] was “can cross the blood brain barrier”. The “inhibition of HDAC activity / accumulation of acetylated histones in the brain” value in data set [1] (brain histones, anti-AcH3/AcH4 Western blot) was “significantly inhibit HDAC activity causing the accumulation of acetylated histones in the brain”.
As to `O=C(CCCCCCC(=O)Nc1ccccc1)NO` [SAHA, suberoylanilide hydroxamic acid], the “toxicity to the animal” value in the data set on tumor growth (animals in tumor growth studies) was “no toxicity to the animal”. The “accumulation of acetylated histones in the tumor” value in the data set with tumor growth (tumor) is recorded as “associated with an accumulation of acetylated histones in the tumor”. Also, the “cell cycle arrest, differentiation and/or apoptosis” value in data set [2] is recorded as “induces cell cycle arrest, differentiation and/or apoptosis of transformed cells in culture”. In addition, in data set [3], the “binding to histone deacetylase enzyme” value is recorded as “bind directly in the catalytic pocket of the histone deacetylase enzyme”. For the same molecule, in data set [1], the “crossing of the blood brain barrier” value was “can cross the blood brain barrier”.
